From US10124059B2, “Dimeric scaffold peptides comprising HIV-1 GP120 and GP41 epitopes” (priority 2011, dated 2018)
Ends that are not written are not given here.

Key:
[1] = system: New Zealand White female rabbits; assay: Rabbit immunizations with BI400-B vaccine, direct ELISA of sera; type: in vivo
Experimental: New Zealand White female rabbits (n=3) was immunized intradermally at weeks 0, 2 & 6 with 1 ml of BI400-B vaccine consisting of 500 μg BI400-B in 50% V/V Freund's adjuvant (i.e. Complete Freund's adjuvant used for priming, followed by boostings with Incomplete Freund's adjuvant). Individual blood serum was isolated for ELISA.
50-100 μl of BI400-B (pre-incubated in Coating buffer—0.05M Na2CO3 pH9.6; denoted CB—in cold at 16 μg/ml for each peptide 1-3 days prior to coating) or just CB (background control) is used for coating wells in microtiter plates at 4° C. overnight. The microtiter plates are then washed 3× with washing buffer (PBS+1% v/v Triton-X100; denoted WB), followed by 2 h blocking at room temperature (RT) with 200 μl/well of blocking buffer (PBS+1% w/v BSA). Plates are then washed 3× with WB, followed by 1 h incubation at 37° C. with 50-70 ul/well of added human (or rabbit) sera (serial dilutions ranging from 1:1-1:250 in dilution buffer (PBS+1% v/v Triton-X100+1% w/v BSA; denoted DB)). Plates are then washed 6× with WB, followed by 1 h incubation at RT with 70 μl/well of Alkaline Phosphatase-conjugated Protein G (3 μg/ml in DB; Calbiochem 539305). […] Plates are finally quenched by adding 100 μl/well of Quench solution (0.1M TRIS+0.1M EDTA+0.5M NaOH+0.01% w/v NaN3; pH14), followed by ELISA reader (ASYS UVM 340) at 550 nm.

BALB/c mice = assay: Serum IgG ELISA after vaccination of BALB/c mice; type: in vivo
Experimental: 100 μl of antigen as indicated (pre-incubated in Coating buffer—0.05M Na2CO3 pH9.6; denoted CB—in cold at 8 μg/ml 1-3 days) or just CB (background control) was used for coating wells in microtiter plates at 4° C. The microtiter plates are then washed 3× with washing buffer (PBS+1% v/v Triton-X100; denoted WB), followed by 2 h blocking at room temperature (RT) with 200 μl/well of blocking buffer (PBS+1% w/v BSA). Plates are then washed 3× with WB, followed by 1 h incubation at 37° C. with 50-70 ul/well of added human (or rabbit or sheep) sera (serial dilutions ranging from 1:5-1:250 in dilution buffer (PBS+1% v/v Triton-X100+1% w/v BSA; denoted DB)). […] Plates are finally quenched by adding 100 μl/well of Quench solution (0.1M TRIS+0.1M EDTA+0.5M NaOH+0.01% w/v NaN3; pH14), followed by a measurement with a ELISA reader (ASYS UVM 340) at 550 nm. […]

sheep = assay: Serum IgG ELISA after vaccination of sheep; type: in vivo; settings: for Dilution of serum three times background IgG response directed against BI100-cg2 antigen: 500 μg peptide in PBS; for Immune response in vaccinated sheep (in words): by itself or with two different standard adjuvants
Experimental: 100 μl of antigen as indicated (pre-incubated in Coating buffer—0.05M Na2CO3 pH9.6; denoted CB—in cold at 8 μg/ml 1-3 days) or just CB (background control) was used for coating wells in microtiter plates at 4° C. The microtiter plates are then washed 3× with washing buffer (PBS+1% v/v Triton-X100; denoted WB), followed by 2 h blocking at room temperature (RT) with 200 μl/well of blocking buffer (PBS+1% w/v BSA). Plates are then washed 3× with WB, followed by 1 h incubation at 37° C. with 50-70 ul/well of added human (or rabbit or sheep) sera (serial dilutions ranging from 1:5-1:250 in dilution buffer (PBS+1% v/v Triton-X100+1% w/v BSA; denoted DB)). Plates are then washed 6× with WB, followed by 1 h incubation at RT with 70 μl/well of Alkaline Phosphatase-conjugated Protein G (3 μg/ml in DB; Calbiochem 539305) or goat anti-mouse IgG biotin (1 μg/ml, Southern Biotech, 1030-08. In case of the goat anti-mouse IgG biotin, the plates were washed one extra step as described, before addition of 100 μl Streptavidin-Alkaline-Phosphatase (1 μg/ml, Sigma Aldrich, S289) and incubated 1 hour at RT. Plates are then washed 6× with WB, followed by 10-60 min incubation at room temperature with 100 μl/well of 0.3% w/v of Phenophtalein monophosphate (Sigma P-5758). Plates are finally quenched by adding 100 μl/well of Quench solution (0.1M TRIS+0.1M EDTA+0.5M NaOH+0.01% w/v NaN3; pH14), followed by a measurement with a ELISA reader (ASYS UVM 340) at 550 nm. The strength of the sera, i.e. the magnitude of the humoral immune response, is then reported as the dilution of sera that result in the described Optical Density (OD) value, or the OD value at the indicated dilution of sera.
The vaccination of sheep was done with 500 μg of peptide in PBS with the following adjuvants: ISA51 (vaccination week 1, 2, 3, 4, serum from week 6) and Freunds Adjuvant (vaccination weeks 1, 12, 26, serum from week 28). […] This indicate that the constructs can be combined with different adjuvants and induce an IgG response, a signal that an immunological memory has been elicited in sheep.

human PBMC = assay: Influenza specific M2e response by ELISPOT assay (B cell response in stimulated PBMC); type: cell-based
[2] = Freunds Adjuvant, vaccination weeks 1, 12, 26, serum from week 28
[3] = ISA51, vaccination week 1, 2, 3, 4, serum from week 6

Question: What does the source list for “GAKRRVVGGCGGAKRRVVQREKRAGEREKRA (SEQ ID NO: 121) | GKGGIEEEGGRDRDRGGEQDRDR (SEQ ID NO: 122) (thioether (positions not given here); not fully specified (bridges)) [BI400-B, peptides linked via Cys and Lys residues (thioether)]”?
Answer: Character of antibodies generated in animal models (in words) ([1]; animal models): comparable with antibodies elicited in natural HIV infection; Antibody response after immunization (in words) ([1]; rabbits, intradermal 500 μg in Freund's adjuvant at weeks 0, 2 & 6): elicit an efficient antibody response

Question: Which “Immune response in vaccinated mice (in words)” value (BALB/c mice; IgG specific) does the source give for “RRGNWAKVLKNWAKVI (SEQ ID NO: 130) | RRGLLADARVGCGSGADRVCS (SEQ ID NO: 131) (linker (positions not given here) via sulpho‑SMCC; also: sulpho-SMCC linker between Lys and Cys, places not given here) [BI350-1mod1, lysine of first peptide linked to cysteine of second peptide by a sulpho-SMCC linker]” here?
Answer: Its value is “induced a specific immune response”.

Question: What about the “Serum IgG response (OD) directed against vaccine antigen, Mean (n = 6)” value (BALB/c mice; s.c. 100 μg peptide + Alhydrogel at weeks 1, 3, 7, serum from week 9) of the same substance?
Answer: The value was 0.26 OD.

Question: Which results are given for “[RR][SL(Nle)TDIETP][GCG][IDTPIR][G][TPIBQDWG] [BI100-CG]”?
Answer: Dilution of serum three times background IgG response directed against BI100-cg2 antigen (sheep; [2]): 11000; Dilution of serum three times background IgG response directed against BI100-cg2 antigen (sheep; [3]): 125; Dilution of serum three times background IgG response directed against BI100-cg2 antigen (sheep; adjuvant None): 25; Immune response in vaccinated sheep (in words) (sheep): induced an immune response

Question: With “[R][SLZTDIETP][Dpr(Aoa)][IDTPIR][G][TPIBQDWG] | [RR][IDTPIR][GG][TPI(Har)QEW][Dpr(Ser)][SLZTDIETPG] [BI150-2mod]” as the substance, how does the “IgG specific B cell response in human PBMC (in words)” value (human PBMC; IgG) read?
Answer: The value was “recognised by human memory cells”.

Question: And the “IgM B cell proliferation in human PBMC (in words)” value (human PBMC; IgM)?
Answer: Its value is “able to induce proliferation of IgM B cells”.

Question: For “[WWGC][TDIET][CG][IDTPIR][G][TPIBQDWG] [BI100CGcyc]”, which “Dilution of serum three times background IgG response directed against BI100-cg2 antigen” value (shortened to “Dilution”) (sheep; [2]) is on record?
Answer: Its value is 125.

Question: What about the “Dilution” value (sheep; [3]) of the same substance?
Answer: The value was 25.

Question: What about the “Dilution” value (sheep; adjuvant None) of the same substance?
Answer: The value was 25.

Question: What about the “Immune response in vaccinated sheep (in words)” value (sheep) of the same substance?
Answer: The value was “induced an immune response”.
